Key:
[1] = system: CFU-MIX; test: Stimulation of cycling of quiescent murine stem cells after i.v. administration; format: in vivo; conditions: Table 43, untreated B6D2F1 mice, 150 μg/mouse i.v., marrow 24 hours later
Method: Human alpha hemoglobin was injected i.v. into untreated B6D2F1 mice. 24 hours later, the mice were sacrificed, bone marrow collected from femurs and the CFU-MIX assay conducted as in Example 24.

[2] = system: cobblestone area forming cells (CAFC); test: Cobblestone assay (CAFC); format: cell-based, mouse
Method: The cobblestone assay was conducted as described by Ploemacher and colleagues (Ploemacher et al., Blood 74:2755-63, 1989; van der Sluijs et al., Exp. Hematol. 18:893-6, 1990; Ploemacher et al., Blood 78:2527-33, 1991; Ploemacher et al., J. Tiss. Cult. Meth. 13:63-68, 1991; Down and Ploemacher, Exp. Hematol. 21:213-21, 1993). The cobblestone assay measures the appearance of groups of cells (or “cobblestones”) within a monolayer of stromal cells. Very primitive stem cells will not form colonies in soft agar but do form cobblestones in the presence of a stromal monolayer. The cells which form cobblestones are referred to as “cobblestone area forming cells” (CAFC). The more differentiated (e.g., GM-CFC) progenitors form transient cobblestones which appear and then disappear within the first few weeks of culture whereas more primitive stem cells (e.g., long-term repopulating cells) form cobblestones which appear only after 4-5 weeks of culture. Thus, CAFC forming on days 7-14 of culture are enriched in CFU-GM, CAFC forming on […] are enriched in CFU-MIX, and CAFC forming on days 28-35 are enriched in long-term repopulating cells. […]
The frequency of cobblestone area forming cells (CAFC) was calculated as previously described (Ploemacher et al., Blood 78:2527-33, 1991; Ploemacher et al., J. Tiss. Cult. Meth. 13:63-68, 1991; Breems et al., Leukemia 8:1095-104, 1994). […]

In the case of “Human alpha chain: purified, non-recombinant human alpha hemoglobin chain isolated by reversed-phase HPLC”, the “% Kill” value [1] is reported as 48%, the “increase of the proportion of late-forming CAFC” value ([2]; cycling stem cells (testosterone propionate treated B6D2F1), 100 ng/10^6 cells, 4 hours) is reported as “approximately 5 fold” and the “effect on CAFC of non-cycling stem cells” value ([2]; non-cycling stem cells) is reported as “no effect”.

Reference: US6784155B1, “Inhibitor and stimulator of stem cell proliferation and uses thereof” (Wellstat Therapeutics Corporation, priority 1996, dated 2004)
